Several values for one entry are separate records, joined by “and”; a condition that tells them apart may be missing. Equal values may be shown once.
Molecular target: KCNQ2 (Homo sapiens, UniProt O43526)
Assay: Two-electrode voltage clamp of KCNQ2 in Xenopus oocytes
Type: cell-based
Details: Q2, individual oocytes
Description: KCNQ2 and KCNQ3 form a channel complex that carries M currents in neurons. Similar to KCNQ1, these KCNQ subunits require PIP2 for voltage-dependent activation. KCNQ2 alone can express functional channels in Xenopus oocytes, while KCNQ3 alone cannot. However, a single mutation, A315T, allows KCNQ3 to functionally express in Xenopus oocytes. We examined the effects of CP1 on KCNQ2, KCNQ3 with mutation A315T (denoted as KCNQ3*), KCNQ2+KCNQ3, and KCNQ2+KCNQ3* expressed in Xenopus oocytes (Fig. 5a). Similar to the effects on KCNQ1 and IKs channels, CP1 changed the amplitude of currents (Fig. 5b), shifted the G–V relation to more negative voltages (Fig. 5c), and slowed the deactivation kinetics (Fig. 5d) for all of these KCNQ channels. These CP1 effects were relatively small on KCNQ2 as compared with those on other KCNQ channels, and the effects on KCNQ2/KCNQ3* and KCNQ2/KCNQ3 complexes were closer to those on KCNQ2 alone.
Fig. 5 Subtype selectivity of CP1 on KCNQ channels. a Current traces of KCNQ channels as indicated in the absence and the presence of 10 µM CP1. […]
The whole-oocyte ionic currents were recorded with a GeneClamp 500B amplifier (Axon Instruments, CA) or iTEV90 amplifier (HEKA, Germany) and then sampled at 1 kHz and low-pass-filtered at 2 kHz. […] The Kir1.1 current was recorded with a high K^+ bath solution containing (in mM) 96 KCl, 4 NaCl, 1 CaCl2, 2 MgCl2, and 10 HEPES, pH 7.3–7.4. The HCN4 current was recorded in ND66 solution containing (in mM) 66 NaCl, 32 KCl, 1.8 CaCl2, 1 MgCl2, and 5 HEPES, pH 7.6. All the other potassium channels were recorded in ND96 solution. The currents of CaV1.2 channel were recorded in 40 mM Ba^2+ bath solution containing (in mM) 40 Ba(OH)2, 50 TEA-OH, 2 KOH, and 5 HEPES, adjusted to pH 7.4 with methanesulfonic acid. […] The HCN4 currents were recorded by a test pulse between −30 and −140 mV in 10-mV step from a holding potential of −30 mV. […]

## O=S(=O)([O-])Oc1c(-c2sc3c(ccc4cccc(Cl)c43)c2OS(=O)(=O)[O-])[nH]c2ccc(Br)cc12.[Na+].[Na+] [CP1, DISODIUM 5-BROMO-2-[9-CHLORO-3-(SULFONATOOXY) NAPHTHO [1,2-B] THIEN-2-YL]-1H-INDOL-3-YL SULFATE]
10 µM CP1, at −10 mV
  outward current (Icp1/Ictrl): 0.9785 and 0.9995 and 0.8123 and 1.2015 and 0.921 and 1.0361 and 1.0974 and 0.9815
10 µM CP1
  ∆V1/2: 17.7074 mV and 18.0799 mV and 23.5635 mV and 19.0344 mV and 22.5139 mV and 21.9525 mV and 18.3088 mV and 15.6776 mV
10 µM CP1 treated
  τ deact at -120 mV: 0.0991 s and 0.1579 s and 0.2146 s and 0.1525 s and 0.1022 s
